Among the test systems are HCT-116 colon; CCRF-CEM leukemia; SF-268 CNS; HCC-2998 colon; SK-MEL-2 melanoma; RXF 393 renal; MALME-3M melanoma; CAKI-1 renal.
What all share (assay): inhibition of tumour cell growth, NCI panel, 48 h

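The compound was tested at five concentrations on cells cultured in 96-well plates, with a 48-hour exposure period. TGI: total growth inhibition.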

As for `COc1cccc(/C=N/[N-]C(N)=O)c1[O-].[Cu+2].c1ccncc1`, the TGI with HCT-116 colon is 32 µM; in the assay with CCRF-CEM leukemia, 56.2 µM; with SF-268 CNS, 39.2 µM; in the assay with HCC-2998 colon it was greater than 100 µM; with SK-MEL-2 melanoma, 58.5 µM; in the assay on RXF 393 renal, 28.6 µM. In addition, the TGI in the assay with MALME-3M melanoma amounted to 28.3 µM; in the assay on CAKI-1 renal it was 31.1 µM.

Consider `COC(=O)C1=CCS(=O)(=O)C1`, for which the TGI in the assay with HCT-116 colon, in the assay on SF-268 CNS, in the assay on HCC-2998 colon, in the assay on SK-MEL-2 melanoma, in the assay with RXF 393 renal and with MALME-3M melanoma was greater than 100 µM in each case. In addition, the TGI with CAKI-1 renal is greater than 100 µM.

As for `O=C1OC(/C=C/c2ccccc2)C(=O)C1=O` (configuration not stated), the TGI in the assay on CCRF-CEM leukemia, with SF-268 CNS, in the assay with HCC-2998 colon, in the assay with SK-MEL-2 melanoma, in the assay with RXF 393 renal and with MALME-3M melanoma was greater than 100 µM in each case.

For the compound `O=c1c2ccc(Br)cc2nc(-c2ccccc2)n1NC1OC(CO)C(O)C(O)C1O` (configuration not stated), the TGI with HCT-116 colon, in the assay with CCRF-CEM leukemia, in the assay with SF-268 CNS, in the assay with HCC-2998 colon, with SK-MEL-2 melanoma and in the assay on MALME-3M melanoma was greater than 100 µM in each case. In the assay with CAKI-1 renal, this compound returned a TGI greater than 100 µM.

As for `O=C(NCCOCCO)c1ccc(O)cc1`, the TGI in the assay on HCT-116 colon, in the assay on CCRF-CEM leukemia, in the assay on SF-268 CNS and in the assay with RXF 393 renal was greater than 100 µM each time.

For `COc1cc(C2C(C(=O)Nc3ccccc3C)=C(C)NC(C)=C2C(=O)Nc2ccccc2C)ccc1O`, the TGI in the assay with HCT-116 colon, with CCRF-CEM leukemia, in the assay on HCC-2998 colon, in the assay with SK-MEL-2 melanoma, in the assay on RXF 393 renal and in the assay on MALME-3M melanoma was greater than 100 µM each time. The compound also yielded a TGI in the assay on CAKI-1 renal greater than 100 µM.

With `Cn1c(=O)c2nc3sc4ccccc4c(=N)n3c2n(C)c1=O`, the TGI with CCRF-CEM leukemia, with SF-268 CNS, in the assay with HCC-2998 colon, with SK-MEL-2 melanoma, in the assay with RXF 393 renal and with MALME-3M melanoma was greater than 100 µM each time. In the assay on CAKI-1 renal, this compound returned a TGI greater than 100 µM.

In the case of `O=C1OC(=O)C2C1C1(c3ccccc3)OC2(c2ccccc2)c2c(Br)c(Br)c(Br)c(Br)c21` (configuration not stated), the TGI in the assay with HCT-116 colon, in the assay with CCRF-CEM leukemia, in the assay with SF-268 CNS, in the assay with SK-MEL-2 melanoma, in the assay on RXF 393 renal and in the assay with MALME-3M melanoma was greater than 100 µM each time. In the assay on CAKI-1 renal, the TGI was greater than 100 µM.

On to `C=C1[C@@H]2CCC(C)(C)[C@H]1CCC(=O)[C@@H]2C(=O)OC`, for which the TGI in the assay with HCT-116 colon, in the assay on CCRF-CEM leukemia, with SF-268 CNS, in the assay on HCC-2998 colon, in the assay on SK-MEL-2 melanoma and in the assay with RXF 393 renal was greater than 100 µM in each case. For the same compound, the TGI in the assay with MALME-3M melanoma was greater than 100 µM.

Consider `Cc1ccc(Sc2cc([N+](=O)[O-])cc(Sc3ccc(C)cc3)c2Sc2ccc(C)cc2)cc1`, for which the TGI with HCT-116 colon is greater than 100 µM; with CCRF-CEM leukemia, 65.4 µM; in the assay on SF-268 CNS it was greater than 100 µM; in the assay with HCC-2998 colon, greater than 100 µM; in the assay on SK-MEL-2 melanoma, greater than 100 µM; with RXF 393 renal, greater than 100 µM. Besides, the TGI with MALME-3M melanoma and with CAKI-1 renal was greater than 100 µM throughout.

On to `CC(=O)NC1C(OCc2ccccc2)OC(COC(=O)CCCCCCCCCCNC(=O)CCNc2ccc([N+](=O)[O-])c3[nH]c4ccc(O)cc4c(=O)c23)C(O)C1OC(C)C(=O)N[C@H](C(=O)N[C@H](CCC(=O)O)C(N)=O)C(C)C` (some centres not stated), for which the TGI with HCT-116 colon was greater than 100 µM; with CCRF-CEM leukemia it was 82.5 µM; in the assay with SF-268 CNS, greater than 100 µM; with HCC-2998 colon, greater than 100 µM; with SK-MEL-2 melanoma it was greater than 100 µM; with RXF 393 renal it was greater than 100 µM. In addition, the TGI in the assay on MALME-3M melanoma and in the assay with CAKI-1 renal was greater than 100 µM each time.

`CC12CCC(C)(c3cc(O)c(O)cc31)c1cc(O)c(O)cc12`: the TGI is 11.1 µM in the assay with CCRF-CEM leukemia; 42.9 µM with SF-268 CNS; 33.6 µM in the assay with HCC-2998 colon; greater than 100 µM with SK-MEL-2 melanoma; 31.3 µM in the assay with RXF 393 renal; 45.2 µM with MALME-3M melanoma. For the same compound, the TGI with CAKI-1 renal was 23.6 µM.

For `CCCCCCCCCCCCCCCc1nc(SCC(=O)O)n[nH]1`, the TGI in the assay on HCT-116 colon, with CCRF-CEM leukemia, in the assay with SF-268 CNS, with HCC-2998 colon, in the assay with SK-MEL-2 melanoma and with RXF 393 renal was greater than 100 µM each time. For the same compound, the TGI with MALME-3M melanoma and in the assay on CAKI-1 renal was greater than 100 µM in each case.

Turning to `CCN(CC)[C@@H]1c2cc3c(cc2C(c2cc(OC)c(O)c(OC)c2)C2C(=O)CO[C@@H]21)OCO3` (some centres not stated), the TGI in the assay on HCT-116 colon, in the assay on CCRF-CEM leukemia, in the assay on SF-268 CNS, with HCC-2998 colon, in the assay with SK-MEL-2 melanoma and in the assay with RXF 393 renal was greater than 100 µM each time. In addition, the TGI in the assay on MALME-3M melanoma and in the assay on CAKI-1 renal was greater than 100 µM in each case.

Take `CC1(C)OC(=O)C(c2ccsc2)C(=O)O1`: the TGI with HCT-116 colon, with CCRF-CEM leukemia, in the assay on SF-268 CNS, in the assay with HCC-2998 colon, with SK-MEL-2 melanoma and in the assay on RXF 393 renal was greater than 100 µM throughout. The TGI with MALME-3M melanoma and with CAKI-1 renal was greater than 100 µM in each case.

In the case of `O=c1cc(/C=C/c2ccccc2)c2ccc(O/C(=C\c3ccccc3)c3nc4ccccc4c(=O)o3)cc2o1`, the TGI with HCT-116 colon is 36.5 µM; with CCRF-CEM leukemia, 66.5 µM; in the assay on SF-268 CNS, 35.8 µM; in the assay with HCC-2998 colon, greater than 100 µM; with SK-MEL-2 melanoma, 77.7 µM; in the assay on MALME-3M melanoma, greater than 100 µM. The compound also displayed a TGI in the assay on CAKI-1 renal greater than 100 µM.

In the case of `OCC1C2C=CC(O2)[C@H]1CO` (some centres not stated), the TGI in the assay with HCT-116 colon, in the assay on CCRF-CEM leukemia, in the assay with SF-268 CNS, in the assay on HCC-2998 colon, in the assay on RXF 393 renal and with MALME-3M melanoma was greater than 100 µM in each case. Also, the TGI with CAKI-1 renal was greater than 100 µM.

For the compound `O=C1CCC(=O)C12CCc1ccccc12`, the TGI with SF-268 CNS, in the assay with HCC-2998 colon, in the assay on RXF 393 renal, with MALME-3M melanoma and in the assay with CAKI-1 renal was greater than 100 µM each time.

In the case of `COc1ccc(/C=C\c2cc(OC)c(OC(C)=O)c(OC)c2)cc1`, the TGI in the assay with HCT-116 colon was greater than 100 µM; in the assay on CCRF-CEM leukemia, 57.3 µM; with SF-268 CNS, greater than 100 µM; with HCC-2998 colon, 36.7 µM; in the assay on SK-MEL-2 melanoma it was 58.8 µM; in the assay on MALME-3M melanoma, 91.1 µM. Besides, the TGI with CAKI-1 renal was greater than 100 µM.

Turning to `CSc1nnc2n1-c1ccccc1SCC2`, the TGI in the assay with HCT-116 colon, in the assay on CCRF-CEM leukemia, in the assay on SF-268 CNS, in the assay with HCC-2998 colon, in the assay with SK-MEL-2 melanoma and in the assay with RXF 393 renal was greater than 100 µM throughout. The TGI with MALME-3M melanoma is greater than 100 µM.

On to `OC1/C(=C/c2ccccc2)CNC/C1=C\c1ccccc1` (configuration not stated), for which the TGI in the assay with HCT-116 colon, in the assay with CCRF-CEM leukemia, in the assay with SF-268 CNS, in the assay on HCC-2998 colon, in the assay on RXF 393 renal and in the assay with MALME-3M melanoma was greater than 100 µM in each case. This compound also registered a TGI in the assay on CAKI-1 renal greater than 100 µM.

Regarding `CCn1cc(C(=O)O)c(=O)c2cc(F)c(N3CCNCC3)nc21`, the TGI in the assay on HCT-116 colon, in the assay on CCRF-CEM leukemia, in the assay on SF-268 CNS, with HCC-2998 colon, in the assay on SK-MEL-2 melanoma and in the assay on MALME-3M melanoma was greater than 100 µM each time.

Consider `O=CN/C=C\c1cc(O)ccc1O`, for which the TGI is 25.2 µM with HCT-116 colon; greater than 100 µM with CCRF-CEM leukemia; greater than 57.8 µM in the assay with SF-268 CNS; greater than 100 µM with HCC-2998 colon; greater than 100 µM with SK-MEL-2 melanoma; 28.9 µM with MALME-3M melanoma. The same compound showed a TGI in the assay on CAKI-1 renal of 26.4 µM.

For the compound `Cn1c(=O)ccc2cc(C(=O)c3ccccc3)ccc21`, the TGI in the assay with HCT-116 colon, with CCRF-CEM leukemia, with SF-268 CNS, in the assay with HCC-2998 colon, with SK-MEL-2 melanoma and in the assay on MALME-3M melanoma was greater than 100 µM in each case. Further, in the assay with CAKI-1 renal, the TGI was greater than 100 µM.

Regarding `CN=C(NC#N)NCc1ccccc1`, the TGI with HCT-116 colon, with CCRF-CEM leukemia, in the assay with SF-268 CNS, in the assay with HCC-2998 colon, with SK-MEL-2 melanoma and in the assay on MALME-3M melanoma was greater than 100 µM in each case. In the assay on CAKI-1 renal, this compound displayed a TGI greater than 100 µM.

For `NCCCSCC(=O)O`, the TGI in the assay with HCT-116 colon, in the assay on SF-268 CNS, in the assay on HCC-2998 colon, with SK-MEL-2 melanoma, in the assay on RXF 393 renal and in the assay on MALME-3M melanoma was greater than 100 µM each time. This compound showed a TGI with CAKI-1 renal greater than 100 µM.

Take `O=C1C2Cc3ccccc3CN2C(=O)N1CCN1CCOCC1` (configuration not stated): the TGI in the assay with CCRF-CEM leukemia, in the assay on SF-268 CNS, with HCC-2998 colon, with SK-MEL-2 melanoma, with MALME-3M melanoma and in the assay on CAKI-1 renal was greater than 100 µM throughout.
